Experiment [1] has as its target T1, Transthyretin (Homo sapiens, UniProt P02766). The experiment can be described thus: Binding affinity to human TTR assessed as binding constant in PBS buffer at pH 7.4 measured after 20 mins fluorescence polarization assay. (In general: Fluorescence polarisation rises when a labelled molecule tumbles more slowly, as on binding a larger partner.)
Experiment [2] has as its target Interleukin-2 (Homo sapiens) (UniProt P60568). The experiment can be described thus: Induction of stability of human recombinant interleukin 2 assessed as mean residence time in Sprague-Dawley rat at 0.8 mg/kg, iv measured up to 24 hrs by ELISA (Rvb= 1.04+/-0.07 hrs). Format: organism-based. The conditions noted are these: time hrs <=24. On the technique in general: In an ELISA, binding on a coated surface is turned into a signal by an enzyme label.

The target is the same in experiment [3]. The experiment can be described thus: Induction of stability of human recombinant interleukin 2 assessed as effect on mouse CTLL-2 cell proliferation in presence of TTR measured after 48 hrs by WST-1 assay. A general note: Tetrazolium dyes change colour on reduction, which living cells bring about.
For experiment [4] the target is unchanged. The experiment can be described thus: Induction of stability of human recombinant interleukin 2 assessed as binding affinity to human TTR in human serum by measuring target occupancy at 10 uM measured every 15 mins for 6 hrs by fluorescent probe exclusion selectivity assay. Format: cell-free.
The target in experiment [5] is T1, Transthyretin. The experiment can be described thus: Binding affinity to human TTR in human serum assessed as target occupancy at 10 uM measured every 15 mins for 6 hrs by fluorescent probe exclusion selectivity assay. Format: cell-free.
The target of experiment [6] is Interleukin-2 (Homo sapiens) (UniProt P60568). The experiment can be described thus: Induction of stability of human recombinant interleukin 2 assessed as half life in Sprague-Dawley rat plasma at 0.8 mg/kg, iv measured up to 24 hrs by ELISA (Rvb= 1.26+/-0.18 hrs). The format is organism-based. The conditions noted are these: time hrs <=24.

The structures appear in SMILES notation. pKd: −log10 of the molar value. Active and inactive are the calls of the source. The calls are words filed in the database; no cut-off is given here.

Interleukin-2 (Homo sapiens), sequence (P60568 whole entry): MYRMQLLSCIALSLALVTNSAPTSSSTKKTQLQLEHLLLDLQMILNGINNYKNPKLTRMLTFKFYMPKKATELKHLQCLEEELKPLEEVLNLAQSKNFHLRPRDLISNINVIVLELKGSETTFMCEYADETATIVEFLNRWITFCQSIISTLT

Broadly, the pKd is −log10 of the Kd, conventionally taken in molar units. For `Cc1n[nH]c(C)c1CCCOc1cc(OCCCc2cn(CCOCCOCCOCCOCCNC(=O)C3CCC(CN4C(=O)C=CC4=O)CC3)nn2)cc(C(=O)O)c1` (stereo unspecified), the pKd on Transthyretin [1] is 6.29. Also, the MRT in experiment [2] came out at 8.76 h. For the same compound, the outcome in experiment [3] was inactive. The Occ in experiment [4] amounted to 52.6%; at Transthyretin [5], 51.8%. In addition, the T1/2 in experiment [6] turned out to be 5.22 h.
